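Growth conditions: 96-well plates. Treatment: test compound, 48 hours, 5 concentrations. Analysis: linear interpolation between bracketing concentrations; unreached endpoints set to highest concentration. GI50 = concentration required for 50% inhibition of growth. TGI is the concentration that stops growth completely.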
Tests used:
Assay in all cases: NCI tumour cell line growth inhibition, 48 h
SK-MEL-5 melanoma = test system: SK-MEL-5 melanoma
RPMI-8226 leukemia = test system: RPMI-8226 leukemia
HT29 colon = test system: HT29 colon
NCI-H460 lung = test system: NCI-H460 lung
OVCAR-3 ovarian = test system: OVCAR-3 ovarian
SK-MEL-2 melanoma = test system: SK-MEL-2 melanoma
HCT-15 colon = test system: HCT-15 colon
TK-10 renal = test system: TK-10 renal
UACC-62 melanoma = test system: UACC-62 melanoma
HOP-62 NSCLC = test system: HOP-62 NSCLC
MOLT-4 leukemia = test system: MOLT-4 leukemia
HOP-92 NSCLC = test system: HOP-92 NSCLC
CAKI-1 renal = test system: CAKI-1 renal
SN12C renal = test system: SN12C renal
RXF 393 renal = test system: RXF 393 renal
SF-268 CNS = test system: SF-268 CNS
M14 melanoma = test system: M14 melanoma
UO-31 renal = test system: UO-31 renal
MALME-3M melanoma = test system: MALME-3M melanoma
KM20L2 colon = test system: KM20L2 colon
ACHN renal = test system: ACHN renal
K-562 leukemia = test system: K-562 leukemia
CCRF-CEM leukemia = test system: CCRF-CEM leukemia
COLO 205 colon = test system: COLO 205 colon
SF-295 CNS = test system: SF-295 CNS
786-0 renal = test system: 786-0 renal
SK-MEL-28 melanoma = test system: SK-MEL-28 melanoma
HCC-2998 colon = test system: HCC-2998 colon
NCI-H226 lung = test system: NCI-H226 lung
A498 renal = test system: A498 renal
OVCAR-5 ovarian = test system: OVCAR-5 ovarian
SK-OV-3 ovarian = test system: SK-OV-3 ovarian
HCT-116 colon = test system: HCT-116 colon
SW-620 colon = test system: SW-620 colon
EKVX NSCLC = test system: EKVX NSCLC
M19-MEL melanoma = test system: M19-MEL melanoma
IGROV1 ovarian = test system: IGROV1 ovarian
NCI-H23 lung = test system: NCI-H23 lung
A549 NSCLC = test system: A549 NSCLC
DLD-1 colon = test system: DLD-1 colon
LOX IMVI melanoma = test system: LOX IMVI melanoma
LXFL 529 NSCLC = test system: LXFL 529 NSCLC
SF-539 CNS = test system: SF-539 CNS
KM12 colon = test system: KM12 colon
UACC-257 melanoma = test system: UACC-257 melanoma
OVCAR-8 ovarian = test system: OVCAR-8 ovarian
U251 CNS = test system: U251 CNS
NCI-H522 lung = test system: NCI-H522 lung
OVCAR-4 ovarian = test system: OVCAR-4 ovarian
HL-60(TB) leukemia = test system: HL-60(TB) leukemia
SNB-19 CNS = test system: SNB-19 CNS

SMILES: CC(=O)[CH-]C(=O)c1ccccc1.CC(=O)[CH-]C(=O)c1ccccc1.CCN(CC)CC[O-].CCN(CC)CC[O-].Cl.[Hf+4]
- GI50 (SK-MEL-5 melanoma): > 100 µM
- TGI (SK-MEL-5 melanoma): > 100 µM
- GI50 (RPMI-8226 leukemia): > 100 µM
- TGI (RPMI-8226 leukemia): > 100 µM
- GI50 (HT29 colon): > 100 µM
- TGI (HT29 colon): > 100 µM
- GI50 (NCI-H460 lung): 36.4 µM
- TGI (NCI-H460 lung): > 100 µM
- GI50 (OVCAR-3 ovarian): > 100 µM
- TGI (OVCAR-3 ovarian): > 100 µM
- GI50 (SK-MEL-2 melanoma): > 100 µM
- TGI (SK-MEL-2 melanoma): > 100 µM
- GI50 (HCT-15 colon): > 100 µM
- TGI (HCT-15 colon): > 100 µM
- GI50 (TK-10 renal): > 100 µM
- TGI (TK-10 renal): > 100 µM
- GI50 (UACC-62 melanoma): > 100 µM
- TGI (UACC-62 melanoma): > 100 µM
- GI50 (HOP-62 NSCLC): > 100 µM
- TGI (HOP-62 NSCLC): > 100 µM
- GI50 (MOLT-4 leukemia): 65 µM
- TGI (MOLT-4 leukemia): > 100 µM
- GI50 (HOP-92 NSCLC): 58.9 µM
- TGI (HOP-92 NSCLC): > 100 µM
- GI50 (CAKI-1 renal): > 100 µM
- TGI (CAKI-1 renal): > 100 µM
- GI50 (SN12C renal): > 100 µM
- TGI (SN12C renal): > 100 µM
- GI50 (RXF 393 renal): 29.7 µM
- TGI (RXF 393 renal): > 100 µM
- GI50 (SF-268 CNS): > 100 µM
- TGI (SF-268 CNS): > 100 µM
- GI50 (M14 melanoma): 92 µM
- TGI (M14 melanoma): > 100 µM
- GI50 (UO-31 renal): > 100 µM
- TGI (UO-31 renal): > 100 µM
- GI50 (MALME-3M melanoma): > 100 µM
- TGI (MALME-3M melanoma): > 100 µM
- GI50 (KM20L2 colon): > 100 µM
- TGI (KM20L2 colon): > 100 µM
- GI50 (ACHN renal): 44.6 µM
- TGI (ACHN renal): > 100 µM
- GI50 (K-562 leukemia): > 100 µM
- TGI (K-562 leukemia): > 100 µM
- GI50 (CCRF-CEM leukemia): 81.6 µM
- TGI (CCRF-CEM leukemia): > 100 µM
- GI50 (COLO 205 colon): > 100 µM
- TGI (COLO 205 colon): > 100 µM
- GI50 (SF-295 CNS): 73.2 µM
- TGI (SF-295 CNS): > 100 µM
- GI50 (786-0 renal): 88.8 µM
- TGI (786-0 renal): > 100 µM
- GI50 (SK-MEL-28 melanoma): > 100 µM
- TGI (SK-MEL-28 melanoma): > 100 µM
- GI50 (HCC-2998 colon): > 100 µM
- TGI (HCC-2998 colon): > 100 µM
- GI50 (NCI-H226 lung): 66.1 µM
- TGI (NCI-H226 lung): > 100 µM
- GI50 (A498 renal): 32.2 µM
- TGI (A498 renal): > 100 µM
- GI50 (OVCAR-5 ovarian): > 100 µM
- TGI (OVCAR-5 ovarian): > 100 µM
- GI50 (SK-OV-3 ovarian): > 100 µM
- TGI (SK-OV-3 ovarian): > 100 µM
- GI50 (HCT-116 colon): > 100 µM
- TGI (HCT-116 colon): > 100 µM
- GI50 (SW-620 colon): > 100 µM
- TGI (SW-620 colon): > 100 µM
- GI50 (EKVX NSCLC): 93.8 µM
- TGI (EKVX NSCLC): > 100 µM
- GI50 (M19-MEL melanoma): > 100 µM
- TGI (M19-MEL melanoma): > 100 µM
- GI50 (IGROV1 ovarian): > 100 µM
- TGI (IGROV1 ovarian): > 100 µM
- GI50 (NCI-H23 lung): 19.7 µM
- TGI (NCI-H23 lung): > 100 µM
- GI50 (A549 NSCLC): > 100 µM
- TGI (A549 NSCLC): > 100 µM
- GI50 (DLD-1 colon): > 100 µM
- TGI (DLD-1 colon): > 100 µM
- GI50 (LOX IMVI melanoma): 72.9 µM
- TGI (LOX IMVI melanoma): > 100 µM
- GI50 (LXFL 529 NSCLC): > 100 µM
- TGI (LXFL 529 NSCLC): > 100 µM
- GI50 (SF-539 CNS): > 100 µM
- TGI (SF-539 CNS): > 100 µM
- GI50 (KM12 colon): > 100 µM
- TGI (KM12 colon): > 100 µM
- GI50 (UACC-257 melanoma): > 100 µM
- TGI (UACC-257 melanoma): > 100 µM
- GI50 (OVCAR-8 ovarian): > 100 µM
- TGI (OVCAR-8 ovarian): > 100 µM
- GI50 (U251 CNS): > 100 µM
- TGI (U251 CNS): > 100 µM
- GI50 (NCI-H522 lung): 52.5 µM
- TGI (NCI-H522 lung): > 100 µM
- GI50 (OVCAR-4 ovarian): > 100 µM
- TGI (OVCAR-4 ovarian): > 100 µM
- GI50 (HL-60(TB) leukemia): > 100 µM
- TGI (HL-60(TB) leukemia): > 100 µM
- GI50 (SNB-19 CNS): > 100 µM
- TGI (SNB-19 CNS): > 100 µM

— PubChem BioAssay (NCI)
